Results published in PMC10325900, “A conserved motif in the disordered linker of human MLH1 is vital for DNA mismatch repair and its function is diminished by a cancer family mutation” (Nucleic Acids Research, 2023).
No end group written: not given here.

Tests used:
[1] = 33 μM peptide, 20 mM Na-phosphate pH 7.2, 25–95°C, detection at 222 nm
Method: For the CD analysis, 33 μM ConMot peptide was used in 20 mM Na-phosphate buffer pH 7.2, 20°C. Three scans were performed with 190–300 nm wavelength, using a 1 mm light path. A blank was measured with buffer. For the melting analysis, 33 μM ConMot peptide was used in 20 mM Na-phosphate buffer pH 7.2. Detection was at 222 nm, temperature was scanned from 25–95°C. A blank with buffer only was subtracted.

[2] = Circular dichroism (CD) of ConMot peptide; type: physicochemical; conditions: 33 μM peptide, 20 mM Na-phosphate pH 7.2, 20°C, 190–300 nm, three scans, 1 mm light path
Method: A blank was measured with buffer. […] A blank with buffer only was subtracted.

## SGSSDKVYAHQMVRTDSREQKLDAFLQPLSKP [ConMot-32]
[1]
  secondary structure formation by melting analysis: Neither investigation provided evidence for secondary structure formation
[2]
  secondary structure formation by circular dichroism: Neither investigation provided evidence for secondary structure formation
